In patent US9968617B2, “Local topical administration formulations containing indoxacarb” (E.I. du Pont de Nemours and Company, priority 2006, dated 2018):
Values joined by “and” are separate entries in the source; they are usually repeats but may differ in a detail not shown here. Equal values may be shown once.

Legend:
fleas = test: Effect of washing on persistency, flea comb count on dogs (Example 2); type: in vivo, Ctenocephalides felis; conditions: for Group Average Count: Day 44; for Flea Count: individual dog, Day 44, infested with 100 fleas Day 43
Protocol: At completion of the study described in Experiment 1 above, a further washing study was conducted using the six dogs in Group E for a further two weeks.
During the two-week period, four of the six dogs from Group E were washed twice weekly in a non-insecticidal hydrobath, while the other two dogs from Group E were not washed and acted as controls. On Day 43 post-treatment, the 6 dogs were infested with 100 fleas and then had their ability to retain a flea infestation assessed on Day 44 by a flea comb count.

[1] = system: fleas (Ctenocephalides felis); test: Dose response study on canines against fleas, Indoxacarb spot-on (Example 1); type: in vivo; conditions: for reduction of flea infestation: dogs
Protocol: A non-blinded prospective longitudinal artificial infestation parasite efficacy pen study was conducted with a fully randomized design (ranking and blocking based on breed and pre-treatment flea count). There were 5 treatment groups of 6 dogs each, and an untreated control group.
Thirty-three (33) adult dogs (Labrador Retrievers and Jack Russell Terriers) were inducted, clinically examined, weighed, identified and allocated to study pens on Day −7. Each dog was artificially infested with 100 fleas (Ctenocephalides felis) on Day −5 and again on Day −2. On Day −1 flea thumb counts were performed on all dogs and 30 dogs were selected for inclusion. These dogs were randomly allocated to 5 similar groups of 6 animals on the basis of breed and flea counts, and groups were allocated to study pens. On Day 0, Groups B, C, D and E were treated with a local topical administration formulation containing Indoxacarb (DPX-K128) dissolved in a mixture of Dimethyl Isosorbide (DMI) and Propylene Glycol Monomethyl Ether (90% Dimethyl Isosorbide (DMI) and 10% Propylene Glycol Monomethyl Ether by volume) to form a total concentration of 75, 100, 125 or 150 g/L of Indoxacarb (DPX-K128). The starting material to prepare the formulation was a mixture of DPX-K128-and DPX-KN127 (the R-isomer of Formula 1) and contained 70.43% Indoxacarb (DPX-K128). […] The formulation was administered via spot-on application (i.e. applying in liquid form to less than or equal to 10% of the surface area of the animal) to the dorsal midline at the rate of 0.1 mL/1 kg. Group A remained untreated as controls. Group B was dosed at the rate of 7.5 mg/kg; Group C at the rate of 10.0 mg/kg; Group D at the rate of 12.5 mg/kg; and Group E at the rate of 15.0 mg/kg.
Flea thumb counts were performed at 24 hours. Flea comb counts were performed at 48 hours post-treatment and all dogs then treated with Capstar® oral tablets (Nitenpyram, Novartis Animal Health) to remove all fleas prior to the next infestation. Animals were re-infested with 100 adult fleas at 7, 14, 21 and 28 days post-treatment. At 24 hours after each infestation, flea comb counts were performed followed by Capstar treatment.

**Q.** Which results are given for `COC(=O)N(C(=O)N1CO[C@@]2(C(=O)OC)Cc3cc(Cl)ccc3C2=N1)c1ccc(OC(F)(F)F)cc1` [Indoxacarb, (S)-methyl 7-chloro-2,5-dihydro-2-[[(methoxycarbonyl)[4-(trifluoromethoxy)phenyl]amino]carbonyl]indeno[1,2-e][1,3,4]oxadiazine-4a(3H)-carboxylate]?
**A.** persistence after washing (fleas; 44 days, after 4 shampoo hydrobath washes): excellent persistence; Group Average Count (fleas; Treated Non-Wash): 0; Group Average Count (fleas; Treated Wash): 3; Flea Count (fleas; Treated Non-Wash (15.0 mg/kg)): 0; Flea Count (fleas; Treated Wash (15.0 mg/kg, washed twice weekly for two weeks)): 4 and 5 and 1 and 2; persistent efficacy, reduction ([1]; all four groups (7.5-15.0 mg/kg), from the 48 hour count until 29 days post-treatment): ≥ 99%; reduction of flea infestation ([1]; spot-on 7.5 mg/kg (Group B), 24 hrs post-treatment): 97.9%; reduction of flea infestation ([1]; spot-on 7.5 mg/kg (Group B), 48 hrs post-treatment): 99.4%; reduction of flea infestation ([1]; spot-on 10.0 mg/kg (Group C), 24 hrs post-treatment): 97.9%; reduction of flea infestation ([1]; spot-on 10.0 mg/kg (Group C), 48 hrs post-treatment): 100%; reduction of flea infestation ([1]; spot-on 12.5 mg/kg (Group D), 24 hrs post-treatment): 99.0%; reduction of flea infestation ([1]; spot-on 12.5 mg/kg (Group D), 48 hrs post-treatment): 100%; reduction of flea infestation ([1]; spot-on 15.0 mg/kg (Group E), 24 hrs post-treatment): 100%; reduction of flea infestation ([1]; spot-on 15.0 mg/kg (Group E), 48 hrs post-treatment): 99.4%
